Data reported in patent US10183944B2 (Asana Biosciences, LLC, priority 2011, dated 2019).
Structures can show the parent of a compound that is named as a salt.

Assays:
JAK2 = JAK2 (Homo sapiens (Human), UniProt O60674); assay: Inhibition of enzymatic JAK2 kinase activity (TR-FRET); format: biochemical; settings: read-out: IC50 JAK
Summary of the method: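 Enzyme preincubated with compound 30 min at RT, then Ulight-poly-GT substrate and ATP added for 60 min at RT. EDTA stop, Eu-antiphosphotyrosine antibody; TR-FRET ratio 665/615 nm (ex 340 nm), blank-corrected; % inhibition versus positive control.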

[1] = molecular target: Syk (356-635 amino acids) catalytic domain (Homo sapiens (Human), UniProt P43405); assay: Inhibition of enzymatic Syk kinase activity (radiometric); format: biochemical; settings: read-out: IC50 Syk
Summary of the method: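 Human Syk (356-635) kinase domain (0.035–7.5 ng/reaction) preincubated with compound 30 minutes at room temperature, then reacted with pG4T substrate, 100 μM ATP (stock) and γ-32P-ATP for 10 minutes at 30° C. Reaction stopped with HCl/ATP, spotted on P81 paper, washed and counted by scintillation. Percent inhibition versus no-compound counts.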

Sequence of JAK2 (O60674 808-1132): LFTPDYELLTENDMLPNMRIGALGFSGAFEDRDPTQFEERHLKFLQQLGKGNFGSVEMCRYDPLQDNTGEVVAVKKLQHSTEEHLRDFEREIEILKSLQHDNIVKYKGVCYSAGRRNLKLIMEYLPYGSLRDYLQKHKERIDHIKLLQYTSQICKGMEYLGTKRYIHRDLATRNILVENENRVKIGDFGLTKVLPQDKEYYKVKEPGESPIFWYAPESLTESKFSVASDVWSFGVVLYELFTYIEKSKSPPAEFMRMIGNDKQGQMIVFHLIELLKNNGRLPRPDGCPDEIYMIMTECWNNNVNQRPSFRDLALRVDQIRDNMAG

| SMILES | IC50 (JAK2) [nM] | IC50 [1] [nM] |
| --- | --- | --- |
| N#CCC1CCN(c2nc(Nc3ccc(N4CCC(Cc5nn[nH]n5)CC4)cc3)c3c(=O)[nH]ncc3n2)CC1 [Example 246, 2-(1-(4-((4-(4-((2H-tetrazol-5-yl)methyl)piperidin-1-yl)phenyl)amino)-5-oxo-5,6-dihydropyrimido[4,5-d]pyridazin-2-yl)piperidin-4-yl)acetonitrile] | < 10 | < 10 |
| COC(=O)c1ccc(-c2nc(Nc3ccc(CN4CCNCC4)cc3)c3c(=O)[nH]ncc3n2)cc1 [Example 2, Methyl 4-(5-oxo-4-(4-(piperazin-1-ylmethyl)phenylamino)-5,6-dihydropyrimido[4,5-d]pyridazin-2-yl)benzoate hydrochloride] | > 100 | < 100 |
| O=c1[nH]ncc2nc(N3CC[S+]([O-])CC3)nc(Nc3ccc(CN4CCNCC4)cc3)c12 [Example 44, 2-(1-oxidothiomorpholino)-4-((4-(piperazin-1-ylmethyl)phenyl)amino) pyrimido[4,5-d]pyridazin-5(6H)-one hydrochloride] | > 100 | > 100 |
| O=c1[nH]ncc2nc(N3CCCCCC3)nc(Nc3ccc(OCCO)cc3)c12 [Example 294, 2-(azepan-1-yl)-4-((4-(2-hydroxyethoxy)phenyl)amino)pyrimido[4,5-d]pyridazin-5(6H)-one] | < 50 | < 50 |
| O=C(O)CC1CCN(Cc2ccc(Nc3nc(N4CCCCCC4)nc4cn[nH]c(=O)c34)cc2)CC1 [Example 77, 2-(1-(4-((2-(azepan-1-yl)-5-oxo-5,6-dihydropyrimido[4,5-d]pyridazin-4-yl)amino)benzyl)piperidin-4-yl)acetic acid] | < 10 | < 50 |
| COCCOc1ccc(Nc2nc(N3CCCCCC3)nc3cn[nH]c(=O)c23)cc1 [Example 324, 2-(azepan-1-yl)-4-((4-(2-methoxyethoxy)phenyl)amino)pyrimido[4,5-d]pyridazin-5(6H)-one] | < 50 | < 50 |
| O=c1[nH]ncc2nc(N3CCCCCC3)nc(Nc3ccc(N4CCC(Cc5nn[nH]n5)CC4)nc3)c12 [Example 252, 4-((6-(4-((2H-tetrazol-5-yl)methyl)piperidin-1-yl)pyridin-3-yl)amino)-2-(azepan-1-yl)pyrimido[4,5-d]pyridazin-5(6H)-one] | < 10 | < 50 |
| N#CCN1CCN(c2nc(Nc3ccc(N4CCC(CC(=O)O)CC4)cc3)c3c(=O)[nH]ncc3n2)CC1 [Example 70, 2-(1-(4-((2-(4-(cyanomethyl)piperazin-1-yl)-5-oxo-5,6-dihydropyrimido[4,5-d]pyridazin-4-yl)amino)phenyl)piperidin-4-yl)acetic acid] | > 100 | < 100 |
| N#CCC1CCN(c2ccc(Nc3nc(-c4ccccc4)nc4cn[nH]c(=O)c34)cn2)CC1 [Example 101, 2-(1-(5-((5-oxo-2-phenyl-5,6-dihydropyrimido[4,5-d]pyridazin-4-yl)amino)pyridin-2-yl)piperidin-4-yl) acetonitrile] | > 100 | > 100 |
| CCN1CCN(CCc2ccc(Nc3nc(N4CCC(CC#N)CC4)nc4cn[nH]c(=O)c34)cc2)CC1 [Example 197, 2-(1-(4-((4-(2-(4-ethylpiperazin-1-yl)ethyl)phenyl)amino)-5-oxo-5,6-dihydropyrimido[4,5-d]pyridazin-2-yl)piperidin-4-yl)acetonitrile] | < 10 | < 10 |
| COc1ccc(-c2nc(Nc3ccc(CN4CCNCC4)cc3)c3c(=O)[nH]ncc3n2)cc1 [Example 41, 2-(4-methoxyphenyl)-4-(4-(piperazin-1-ylmethyl)phenylamino)pyrimido[4,5-d]pyridazin-5(6H)-one hydrochloride] | > 100 | < 100 |
| O=C(O)c1ccc(-c2nc(Nc3ccc(CN4CCNCC4)cc3)c3c(=O)[nH]ncc3n2)cc1 [Example 27, 4-(5-oxo-4-(4-(piperazin-1-ylmethyl)phenylamino)-5,6-dihydropyrimido[4,5-d]pyridazin-2-yl)benzoic acid hydrochloride] | > 100 | > 100 |
| N#CCC1CCN(c2nc(Nc3ccc(-c4nn[nH]n4)cc3)c3c(=O)[nH]ncc3n2)CC1 [Example 245, 2-(1-(4-((4-(2H-tetrazol-5-yl)phenyl)amino)-5-oxo-5,6-dihydropyrimido[4,5-d]pyridazin-2-yl)piperidin-4-yl)acetonitrile] | < 50 | < 50 |
| CC(C)(O)C(=O)N1CCN(c2ccc(Nc3nc(N4CCCCCC4)nc4cn[nH]c(=O)c34)cn2)CC1 [Example 238, 2-(azepan-1-yl)-4-((6-(4-(2-hydroxy-2-methylpropanoyl)piperazin-1-yl)pyridin-3-yl)amino)pyrimido[4,5-d]pyridazin-5(6H)-one] | < 10 | < 50 |
| COc1cccc(-c2nc(Nc3ccc(CN4CCNCC4)cc3)c3c(=O)[nH]ncc3n2)c1 [Example 31, 2-(3-methoxyphenyl)-4-(4-(piperazin-1-ylmethyl)phenylamino)pyrimido[4,5-d]pyridazin-5(6H)-one hydrochloride] | > 100 | < 50 |
| N#CCC(=O)N1CCN(c2ccc(Nc3nc(N4CCC(CC#N)CC4)nc4cn[nH]c(=O)c34)cc2)CC1 [Example 240, 3-(4-(4-((2-(4-(cyanomethyl)piperidin-1-yl)-5-oxo-5,6-dihydropyrimido[4,5-d]pyridazin-4-yl)amino)phenyl)piperazin-1-yl)-3-oxopropanenitrile] | < 10 | < 50 |
| N#CCC1CCN(c2nc(Nc3ccc(OCCO)cc3)c3c(=O)[nH]ncc3n2)CC1 [Example 293, 2-(1-(4-((4-(2-hydroxyethoxy)phenyl)amino)-5-oxo-5,6-dihydropyrimido[4,5-d]pyridazin-2-yl)piperidin-4-yl) acetonitrile] | < 50 | < 100 |
| O=C(O)CC1CCC(c2ccc(Nc3nc(-c4ccccc4)nc4cn[nH]c(=O)c34)cc2)CC1 (stereo not shown) [Example 87, 2-(4-(4-((5-oxo-2-phenyl-5,6-dihydropyrimido[4,5-d]pyridazin-4-yl)amino)phenyl)cyclohexyl)acetic acid] | < 100 | < 50 |
| O=c1[nH]ncc2nc(N3CCCCCC3)nc(Nc3ccc(N4CCC(O)CC4)nc3)c12 [Example 217, 2-(azepan-1-yl)-4-((6-(4-hydroxypiperidin-1-yl)pyridin-3-yl)amino)pyrimido[4,5-d]pyridazin-5(6H)-one] | < 50 | < 50 |
| CCN1CCN(c2ccc(Nc3nc(N4CCCCCC4)nc4cn[nH]c(=O)c34)cn2)CC1 [Example 229, 2-(azepan-1-yl)-4-((6-(4-ethylpiperazin-1-yl)pyridin-3-yl)amino)pyrimido[4,5-d]pyridazin-5(6H)-one] | < 10 | < 50 |
| O=C(O)C1CC12CCN(c1ccc(Nc3nc(N4CCCCCC4)nc4cn[nH]c(=O)c34)cn1)CC2 (stereo not shown) [Example 134] | < 10 | < 50 |
| N#CCC1CCN(c2nc(Nc3ccc(N4CCC(Cc5nn[nH]n5)CC4)nc3)c3c(=O)[nH]ncc3n2)CC1 [Example 253, 2-(1-(4-((6-(4-((2H-tetrazol-5-yl)methyl)piperidin-1-yl)pyridin-3-yl)amino)-5-oxo-5,6-dihydropyrimido[4,5-d]pyridazin-2-yl)piperidin-4-yl) acetonitrile] | < 10 | < 50 |
| O=c1[nH]ncc2nc(N3CCCCCC3)nc(Nc3ccc(OCCN4CCN(CCO)CC4)cc3)c12 [Example 239, 2-(azepan-1-yl)-4-((4-(2-(4-(2-hydroxyethyl)piperazin-1-yl)ethoxy)phenyl)amino)pyrimido[4,5-d]pyridazin-5(6H)-one] | < 50 | < 100 |
| O=C(O)CCC1CCN(c2ccc(Nc3nc(N4CCCCCC4)nc4cn[nH]c(=O)c34)cc2)CC1 [Example 130, 3-(1-(4-((2-(azepan-1-yl)-5-oxo-5,6-dihydropyrimido[4,5-d]pyridazin-4-yl)amino)phenyl)piperidin-4-yl)propanoic acid] | < 10 | < 10 |
| O=C(O)C[C@H]1CC[C@H](c2ccc(Nc3nc(N4CCCCCC4)nc4cn[nH]c(=O)c34)cc2)CC1 [Example 129, 2-((1R,4R)-4-(4-((2-(azepan-1-yl)-5-oxo-5,6-dihydropyrimido[4,5-d]pyridazin-4-yl)amino)phenyl)cyclohexyl)acetic acid] | < 10 | < 10 |
| CC(C)(C(=O)O)C1CCN(c2ccc(Nc3nc(N4CCCCCC4)nc4cn[nH]c(=O)c34)cc2)CC1 [Example 142, 2-(1-(4-((2-(azepan-1-yl)-5-oxo-5,6-dihydropyrimido[4,5-d]pyridazin-4-yl)amino)phenyl)piperidin-4-yl)-2-methylpropanoic acid] | < 10 | < 50 |
| O=c1[nH]ncc2nc(N3CCCCCC3)nc(Nc3ccc(N4CCC(CCO)CC4)cc3)c12 [Example 195, 2-(azepan-1-yl)-4-((4-(4-(2-hydroxyethyl)piperidin-1-yl)phenyl)amino) pyrimido[4,5-d]pyridazin-5(6H)-one] | < 10 | < 10 |
| N#CCC1CCN(c2ccc(Nc3nc(N4CCCCCC4)nc4cn[nH]c(=O)c34)cc2)CC1 [Example 113, 2-(1-(4-((2-(azepan-1-yl)-5-oxo-5,6-dihydropyrimido[4,5-d]pyridazin-4-yl)amino)phenyl)piperidin-4-yl)acetonitrile] | < 10 | > 100 |
| O=c1[nH]ncc2nc(N3CCCCCC3)nc(Nc3ccc(CCCO)cc3)c12 [Example 308, 2-(azepan-1-yl)-4-((4-(3-hydroxypropyl)phenyl)amino)pyrimido[4,5-d]pyridazin-5(6H)-one] | < 10 | < 50 |
